# Measurements published in patent US20040009904A1, “APL immunoreactive peptides, conjugates thereof and methods of treatment for aPL antibody-mediated pathologies” (priority 1995, published 2004).
# Numbered stars: 1 amine (or outer) side, 2 acyl side, 3 side chain; on linkers, the order of the positions; unused ones are H or OH. Bridge positions count the residues as written; N and C are the ends. Square brackets hold non-standard residues; d marks the D form. Peptide text beside a SMILES is read from it. Abu(4-yl) = O=C([C@H](CC[*:3])N[*:1])[*:2]; hCys = N[C@@H](CCS)C(=O)O
# Key:
# ACA-6501 = assay: Competitive binding peptide ACA ELISA, cardiolipin/β2-GPI-coated plates; parameters: species or system human; settings: for with ACA 6501 150 ug/mL: Optimization of Peptide 3G3, inf = no 50% inhibition; for IC50 Values, ACA-6501: cyclic thioether analogs; for Percent Inhibition of AffACA by Peptide Monomers, 6501: peptide 1 mg/mL, affinity purified antibody
# Protocol: (§1) A variation of this assay uses microtitration plates coated with human β2-glycoprotein I/cardiolipin (β2-GPI/CL) instead of tetravalent peptide and tests the ability of monomeric peptides to block the binding of aPL antibody to the epitope(s) on β2-GPI/CL. In this assay, IgG-depleted human serum at an optimized concentration is used as a source of β2-GPI. The monomeric peptides at several concentrations are incubated with an optimized concentration of aPL antibody in a manner analogous to the assay which employs tetravalent peptide as a plate substrate. Following the incubation of aPL/peptide in (β2-GPI/CL) plates, antibody binding and the peptide concentration required for 50% inhibition is determined at half-maximal absorbance as in the tetravalent assay.
# (§2) Peptide sequences for all five peptides immediately follow the table. All were tested using the competitive binding peptide ACA ELISA using CL/β2-GPI plates as described herein.
# (§3) (B) Immulon I® 96-well, flat-bottom, polystyrene microtitration plates (Dynatech Laboratories, Inc., Chantilly, Va.) were coated with 30 μL/well of cardiolipin (CL, 50 μg; Sigma Chemical Co., St. Louis, Mo.) in ethanol. Two control wells received 30 μL ethanol only. After overnight evaporation at 4° C., each well was blocked with 200 μL of 5% (w/v) fish gelatin in PBS for 2 hours at RT.
# During this incubation, variable amounts of each of six peptides were mixed with 22 μL ACA-6501 serum diluted with 3% fish gelatin in 1:1 TBS/PBS (final dilution of 1:400) in a final volume of 220 μL using Eppendorf microcentrifuge tubes. Specifically, in tube #1 were mixed 181.3 μL of 3% fish gelatin in TBS-PBS, 16.7 μL of peptide stock solution plus 22 μL of ACA-6501 serum diluted 40 times in 3% fish gelatin/TBS-PBS. Stock solutions ranged from 450-800 μg/mL for peptides #951 (diserine non-cyclized negative control), #952 (a lot of LJP 690), and thioethers CCTE-3G3, CHTE-3G3, HCTE-3G3 and HHTE-3G3. To tube #2 the following were added: 148 μL fish gelatin/TBS-PBS, […] of peptide stock solution, plus 22 μL of 40 times diluted ACA-6501 serum. Tube #3 contained 48 μL fish gelatin/TBS-PBS, […] of peptide stock solution, plus 22 μL of 40 times diluted ACA-6501 serum. The control tube #4 received 396 μL fish gelatin/TBS-PBS and 44 μL of 40 times diluted ACA-6501 serum (no peptide). Each of the tubes incubated for approximately 1 hour at RT.
# (§4) The CL/β2-GPI microtitration plate was washed 5 times with TBS and 100 μL aliquots in duplicate from Eppendorf tubes #1, 2, 3, and 4 containing the antibody-peptide (or no peptide mixtures) were added to the wells. A volume of 100 μL from tube #4 was added to the duplicate control wells containing no cardiolipin. The microtitration plate was incubated for 1 hour at RT with agitation at 40 rpm in an orbital shaker (American Scientific, Rotator V), washed 5 times with TBS and then 100 μL of 1:1000 goat anti-human IgG alkaline phosphatase conjugate (Zymed, Cat No. 62-8422) in 0.5% (w/v) BSA-TBS was added. Following incubation for 1 hour at RT, the microtitration plate was again washed 5 times with TBS and the colorimetric enzyme detection developed by adding 100 μL of PMPP solution (7.8 g phenolphthalein monophosphate plus 69.5 g of 2-amino-2-methyl-1-propanol in 100 mL water stock solution diluted 1:26 with water). After 21 minutes, the reaction was stopped by adding 50 μL of 0.2 M Na2HPO4 (Mallinckrodt) to each well. Absorbance at 550 nm was read in a microplate reader (Bio-Tek Instruments, Model EL 311). The amount of peptide that inhibited ACA-6501 binding by 50%, the IC50, was calculated from the graph at the intersection of half-maximal absorbance with amount of peptide added.
# ACA = assay: Structure Activity Relationship of the Crossreactive ACA Epitope (relative activity); assay type: binding, human; settings: LJP 688 = 100
# Source text: Peptide 6641/3G3 (LJP 688) was subjected to a number of analyses. The analyses included truncation at both the N-terminus and the C-terminus, disulfide substitution, substitution of alanine and glycine for amino acids in positions 2 through 8, substitution of branched aliphatic amino acids in positions 2, 4, 5 and 8, substitution of amino acids affecting conformation of the peptide, including substitution of α-methyl amino acids, substitution of basic amino acids in position 7, substitution of D-amino acids in positions 2 through 9, and the substitution of N-α-methyl amino acids in positions 1 through 9.
# ACA-6701 = assay: Competitive binding peptide ACA ELISA, cardiolipin/β2-GPI-coated plates; parameters: species or system human; settings: for IC50 Values, ACA-6701: cyclic thioether analogs; for Percent Inhibition of AffACA by Peptide Monomers, 6701: peptide 1 mg/mL, affinity purified antibody
# Protocol: as §1, §2, §3, §4
# ACA-6626 = assay: as above; parameters: species or system human; settings: peptide 1 mg/mL, affinity purified antibody
# Protocol: as §1, §2, §3, §4
# ACA-6638 = assay: as above; parameters: species or system human; settings: peptide 1 mg/mL, affinity purified antibody
# Protocol: as §1, §2, §3, §4
# ACA-6641 = assay: as above; parameters: species or system human; settings: peptide 1 mg/mL, affinity purified antibody
# Protocol: as §1, §2, §3, §4
# ACA-6644 = assay: as above; parameters: species or system human; settings: peptide 1 mg/mL, affinity purified antibody
# Protocol: as §1, §2, §3, §4
# ACA-6903 = assay: as above; parameters: species or system human; settings: peptide 1 mg/mL, affinity purified antibody
# Protocol: as §1, §2, §3, §4
# ACA-7004 = assay: as above; parameters: species or system human; settings: peptide 1 mg/mL, affinity purified antibody
# Protocol: as §1, §2, §3, §4
# ACA-7005 = assay: as above; parameters: species or system human; settings: peptide 1 mg/mL, affinity purified antibody
# Protocol: as §1, §2, §3, §4
# ACA antibodies = assay: Competitive binding peptide ACA ELISA, cardiolipin/β2-GPI-coated plates, panel of ACA antibodies (average); parameters: species or system human; settings: peptide 1 mg/mL, average over nine antibodies
# Protocol: as §1, §2
# As noted in Section I above, one synthetic peptide, 6641/3G3 was tested against several high titer ACA antisera. This peptide appeared to be crossreactive with the vast majority of ACA antisera tested as illustrated in FIG. 14.
# as §3, §4
Molecule,with ACA 6501 150 ug/mL (ACA-6501) [µg/mL],Relative Activity (ACA),"IC50 Values, ACA-6501 (ACA-6501) [μg/0.1 mL]","IC50 Values, ACA-6701 (ACA-6701) [μg/0.1 mL]",other results
CC(C)C[C@@H]1NC(=O)[C@H](CCCCN)NC(=O)CNC(=O)[C@@H](CC(C)C)NC(=O)[C@@H](C(C)C)NC(=O)CNC(=O)[C@H](CC(C)C)NC(=O)[C@@H](N)CSSC[C@@H](C(=O)O)NC1=O [C L G dV dL G K L C] (H-CLG[dV][dL]GKLC-OH; disulfide 1-9),50,5.9,–,–,–
CC(C)C[C@@H]1NC(=O)[C@@H](NC(=O)[C@@H]2CCCN2C(=O)CN)CSSC[C@@H](C(=O)N2CCC[C@H]2C(=O)NCC(=O)O)NC(=O)[C@H](CC(C)C)NC(=O)[C@H](CCCCN)NC(=O)CNC(=O)[C@H](CC(C)C)NC(=O)[C@H](C(C)C)NC(=O)CNC1=O [G P C L G V L G K L C P G] (H-GPCLGVLGKLCPG-OH; disulfide 3-11),180,–,–,–,–
"CC(C)C[C@@H]1NC(=O)[C@H](CCCCN)NC(=O)CNC(=O)[C@H](CC(C)C)NC(=O)[C@H](C(C)C)NC(=O)CNC(=O)[C@H](CC(C)C)NC(=O)[C@@H](N)CSSC[C@@H](C(=O)O)NC1=O [LJP 690, CLGVLGKLC] (H-CLGVLGKLC-OH; disulfide 1-9)",–,3.5,10.0,4.0,–
CC(C)C[C@@H]1NC(=O)[C@H](CCCCN)NC(=O)CNC(=O)[C@H](CC(C)C)NC(=O)[C@H](C(C)C)NC(=O)CNC(=O)[C@H](CC(C)C)NC(=O)[C@@H](N)CSC[C@@H](C(=O)O)NC1=O [LJP 698],–,–,11.0,5.0,–
CC(C)C[C@@H]1NC(=O)[C@H](CCCCN)NC(=O)CNC(=O)[C@H](CC(C)C)NC(=O)[C@H](C(C)C)NC(=O)CNC(=O)[C@H](CC(C)C)NC(=O)[C@@H](N)CCSC[C@@H](C(=O)O)NC1=O [LJP 699] (H-[Abu(4-yl)]LGVLGKLC-OH; thioether 1-9),46,1.6,4.6,3.0,–
CC(C)C[C@@H]1NC(=O)[C@H](CCCCN)NC(=O)CNC(=O)[C@H](CC(C)C)NC(=O)[C@H](C(C)C)NC(=O)CNC(=O)[C@H](CC(C)C)NC(=O)[C@@H](N)CSCC[C@@H](C(=O)O)NC1=O [LJP 702] (H-CLGVLGKL[Abu(4-yl)]-OH; thioether 1-9; N-terminus and C-terminus assumed),92,–,9.2,3.2,–
CC(C)C[C@@H]1NC(=O)[C@H](CCCCN)NC(=O)CNC(=O)[C@H](CC(C)C)NC(=O)[C@H](C(C)C)NC(=O)CNC(=O)[C@H](CC(C)C)NC(=O)[C@@H](N)CCSCC[C@@H](C(=O)O)NC1=O [LJP 703] (H-[hCys]LGVLGKL[Abu(4-yl)]-OH; thioether 1-9; N-terminus and C-terminus assumed),80,–,8.0,3.6,–
CC(C)C[C@@H]1NC(=O)[C@@H](NC(=O)[C@@H]2CCCN2)CSSC[C@@H](C(=O)N2CCC[C@H]2C(=O)NCC(=O)O)NC(=O)[C@H](CC(C)C)NC(=O)[C@H](CCCCN)NC(=O)CNC(=O)[C@H](CC(C)C)NC(=O)[C@H](C(C)C)NC(=O)CNC1=O [P C L G V L G K L C P G] (H-PCLGVLGKLCPG-OH; disulfide 2-10),420,–,–,–,–
CC(C)C[C@@H]1NC(=O)[C@@H](NC(=O)[C@H]2CCCN2)CSSC[C@@H](C(=O)O)NC(=O)[C@H](CC(C)C)NC(=O)[C@H](CCCCN)NC(=O)CNC(=O)[C@H](CC(C)C)NC(=O)[C@H](C(C)C)NC(=O)CNC1=O [dP C L G V L G K L C] (H-[dP]CLGVLGKLC-OH; disulfide 2-10),120,–,–,–,–
"CC(C)C[C@@H]1NC(=O)[C@H](CCCCN)NC(=O)[C@H](C)NC(=O)[C@H](CC(C)C)NC(=O)[C@H](C(C)C)NC(=O)CNC(=O)[C@H](CC(C)C)NC(=O)[C@@H](N)CSSC[C@@H](C(=O)O)NC1=O [peptide 925, CLGVLAKLC] (H-CLGVLAKLC-OH; disulfide 1-9)",40,1.8,–,–,–
AGP DGNIADPRC PG (DGNIADPRCPG) [6626/4C7],–,–,–,–,"Percent Inhibition of AffACA by Peptide Monomers, 6501 (ACA-6501): 39%; Percent Inhibition of AffACA by Peptide Monomers, 6626 (ACA-6626): 88%; Percent Inhibition of AffACA by Peptide Monomers, 6638 (ACA-6638): 96%; Percent Inhibition of AffACA by Peptide Monomers, 6641 (ACA-6641): 45%; Percent Inhibition of AffACA by Peptide Monomers, 6644 (ACA-6644): 45%; Percent Inhibition of AffACA by Peptide Monomers, 6701 (ACA-6701): 69%; Percent Inhibition of AffACA by Peptide Monomers, 6903 (ACA-6903): 77%; Percent Inhibition of AffACA by Peptide Monomers, 7004 (ACA-7004): 99%; Percent Inhibition of AffACA by Peptide Monomers, 7005 (ACA-7005): 54%; Percent Inhibition of AffACA by Peptide Monomers, Ave. (ACA antibodies): 68%"
AGP LSDPGYVRNIFH PG (LSDPGYVRNIFHPG) [6701/3B1],–,–,–,–,"Percent Inhibition of AffACA by Peptide Monomers, 6501 (ACA-6501): 41%; Percent Inhibition of AffACA by Peptide Monomers, 6626 (ACA-6626): 43%; Percent Inhibition of AffACA by Peptide Monomers, 6638 (ACA-6638): 65%; Percent Inhibition of AffACA by Peptide Monomers, 6641 (ACA-6641): 43%; Percent Inhibition of AffACA by Peptide Monomers, 6644 (ACA-6644): 37%; Percent Inhibition of AffACA by Peptide Monomers, 6701 (ACA-6701): 96%; Percent Inhibition of AffACA by Peptide Monomers, 6903 (ACA-6903): 51%; Percent Inhibition of AffACA by Peptide Monomers, 7004 (ACA-7004): 72%; Percent Inhibition of AffACA by Peptide Monomers, 7005 (ACA-7005): 23%; Percent Inhibition of AffACA by Peptide Monomers, Ave. (ACA antibodies): 52%"
